Laboratory results taken from US20030171218A1, “Substituted 3-heteroaryl(amino- or oxy)pyrrolidin-2-ones, their preparation and use as herbicides or plant growth regulators” (priority 2001, published 2003).

Columns and labels:
[1] = tested on: weed plants such as Digitaria sanguinalis, Echinochloa crus-galli, Setaria faberi, Setaria viridis, Sorghum halepense, Abutilon theophrasti, Amaranthum …; assay: Pre-emergence effect on weeds (greenhouse pot test); format: in vivo, monocotyledonous and dicotyledonous weed plants; details: application rate of 1 kg or less of active substance per hectare; scored visually after 3 to 4 weeks by comparison with untreated controls
Text: Seeds or rhizome pieces of monocotyledonous and dicotyledonous weed plants are placed in sandy loam soil in plastic pots and covered with soil. The compounds according to the invention which are formulated in the form of wettable powders or emulsion concentrates are then applied to the surface of the soil cover in the form of aqueous suspensions or emulsions at an application rate of 600 to 800 l of water/ha (converted), in various dosages.
After the treatment, the pots are placed in a greenhouse and kept under good growth conditions for the weeds. After the test plants have emerged, the damage to the plants or the negative effect on the emergence is scored visually after a test period of 3 to 4 weeks by comparison with untreated controls. As shown by the test results, compounds according to the invention have good herbicidal pre-emergence activity against a broad spectrum of weed grasses and broad-leafed weeds.

[2] = tested on: harmful plants such as Digitaria sanguinalis, Echinochloa crus-galli, Setaria faberi, Setaria viridis, Sorghum halepense, Abutilon theophrasti, Amaranthum …; assay: Post-emergence effect on weeds (greenhouse pot test); format: in vivo, monocotyledonous and dicotyledonous weeds; details: application rate of 1 kg and less of active substance per hectare; treated at three-leaf stage; scored visually after about 3 to 4 weeks by comparison with untreated controls
Method: Seeds or rhizome pieces of monocotyledonous and dicotyledonous weeds are placed in sandy loam soil in plastic pots, covered with soil and grown in a greenhouse under good growth conditions. Three weeks after sowing, the test plants are treated at the three-leaf stage. The compounds according to the invention which were formulated as wettable powders or emulsion concentrates are sprayed, at various dosages, onto the green parts of the plants at an application rate of 600 to 800 l of water/ha (converted). After the test plants have remained in the greenhouse for about 3 to 4 weeks under optimum growth conditions, the effect of the preparations is scored visually by comparison with untreated controls. The agents according to the invention also have good herbicidal activity post-emergence against a broad spectrum of economically important weed grasses and broad-leafed weeds.

CC(C)c1nc(N)nc(NC2CCN(c3ccccc3)C2=O)n1 (centres unmarked) [Example A20]
herbicidal activity pre-emergence [1]: very good herbicidal activity
herbicidal activity post-emergence [2]: very good herbicidal activity
melting point: 210 °C

CN(c1nc(N)nc(C(C)(C)F)n1)C1CCN(c2cccc(C(F)(F)F)c2)C1=O (centres unmarked) [Example A81]
herbicidal activity pre-emergence [1]: very good herbicidal activity
herbicidal activity post-emergence [2]: very good herbicidal activity

CN(c1nc(N)nc(C(C)(C)F)n1)C1CCN(c2cccc(F)c2)C1=O (centres unmarked) [Example A82]
herbicidal activity pre-emergence [1]: very good herbicidal activity
herbicidal activity post-emergence [2]: very good herbicidal activity

Cc1cc(N2CCC(N(C)c3nc(N)nc(C(C)(C)F)n3)C2=O)ccc1F (centres unmarked) [Example A83]
herbicidal activity pre-emergence [1]: very good herbicidal activity
herbicidal activity post-emergence [2]: very good herbicidal activity

Cc1cccc(N2CCC(N(C)c3nc(N)nc(C(C)(C)F)n3)C2=O)c1 (centres unmarked) [Example A84]
herbicidal activity pre-emergence [1]: very good herbicidal activity
herbicidal activity post-emergence [2]: very good herbicidal activity

Cc1cccc(N2CCC(Nc3nc(N)nc(C(C)(C)F)n3)C2)c1 (centres unmarked) [Example E7]
herbicidal activity pre-emergence [1]: very good herbicidal activity
herbicidal activity post-emergence [2]: very good herbicidal activity

Cc1cccc(N2CCC(Nc3nc(N)nc(C(C)F)n3)C2)c1 (centres unmarked) [Example E8]
herbicidal activity pre-emergence [1]: very good herbicidal activity
herbicidal activity post-emergence [2]: very good herbicidal activity

Cc1cccc(N2CCC(Nc3nc(N)nc(C(C)C)n3)C2)c1 (centres unmarked) [Example E9]
herbicidal activity pre-emergence [1]: very good herbicidal activity
herbicidal activity post-emergence [2]: very good herbicidal activity

Cc1cc(N2CCC(Nc3nc(N)nc(C(C)(C)F)n3)C2)ccc1F (centres unmarked) [Example E10]
herbicidal activity pre-emergence [1]: very good herbicidal activity
herbicidal activity post-emergence [2]: very good herbicidal activity

Cc1cc(N2CCC(Nc3nc(N)nc(C(C)F)n3)C2)ccc1F (centres unmarked) [Example E11]
herbicidal activity pre-emergence [1]: very good herbicidal activity
herbicidal activity post-emergence [2]: very good herbicidal activity

Cc1cc(N2CCC(Nc3nc(N)nc(C(C)C)n3)C2)ccc1F (centres unmarked) [Example E12]
herbicidal activity pre-emergence [1]: very good herbicidal activity
herbicidal activity post-emergence [2]: very good herbicidal activity

CC(C)(F)c1nc(N)nc(NC2CCN(c3cccc(F)c3)C2)n1 (centres unmarked) [Example E13]
herbicidal activity pre-emergence [1]: very good herbicidal activity
herbicidal activity post-emergence [2]: very good herbicidal activity

CC(F)c1nc(N)nc(NC2CCN(c3cccc(F)c3)C2)n1 (centres unmarked) [Example E14]
herbicidal activity pre-emergence [1]: very good herbicidal activity
herbicidal activity post-emergence [2]: very good herbicidal activity

CC(C)c1nc(N)nc(NC2CCN(c3cccc(F)c3)C2)n1 (centres unmarked) [Example E15]
herbicidal activity pre-emergence [1]: very good herbicidal activity
herbicidal activity post-emergence [2]: very good herbicidal activity

CC(C)(F)c1nc(N)nc(NC2CCN(c3cccc(Cl)c3)C2)n1 (centres unmarked) [Example E16]
herbicidal activity pre-emergence [1]: very good herbicidal activity
herbicidal activity post-emergence [2]: very good herbicidal activity

CC(F)c1nc(N)nc(NC2CCN(c3cccc(Cl)c3)C2)n1 (centres unmarked) [Example E17]
herbicidal activity pre-emergence [1]: very good herbicidal activity
herbicidal activity post-emergence [2]: very good herbicidal activity

CC(C)c1nc(N)nc(NC2CCN(c3cccc(Cl)c3)C2)n1 (centres unmarked) [Example E18]
herbicidal activity pre-emergence [1]: very good herbicidal activity
herbicidal activity post-emergence [2]: very good herbicidal activity

CC(C)(F)c1nc(N)nc(NC2CCN(c3cccc(C(F)(F)F)c3)C2)n1 (centres unmarked) [Example E19]
herbicidal activity pre-emergence [1]: very good herbicidal activity
herbicidal activity post-emergence [2]: very good herbicidal activity

CC(F)c1nc(N)nc(NC2CCN(c3cccc(C(F)(F)F)c3)C2)n1 (centres unmarked) [Example E20]
herbicidal activity pre-emergence [1]: very good herbicidal activity
herbicidal activity post-emergence [2]: very good herbicidal activity

CC(C)c1nc(N)nc(NC2CCN(c3cccc(C(F)(F)F)c3)C2)n1 (centres unmarked) [Example E21]
herbicidal activity pre-emergence [1]: very good herbicidal activity
herbicidal activity post-emergence [2]: very good herbicidal activity

CC(C)(F)c1nc(N)nc(NC2CCN(c3cccc(OC(F)(F)F)c3)C2)n1 (centres unmarked) [Example E22]
herbicidal activity pre-emergence [1]: very good herbicidal activity
herbicidal activity post-emergence [2]: very good herbicidal activity

CC(F)c1nc(N)nc(NC2CCN(c3cccc(OC(F)(F)F)c3)C2)n1 (centres unmarked) [Example E23]
herbicidal activity pre-emergence [1]: very good herbicidal activity
herbicidal activity post-emergence [2]: very good herbicidal activity

CC(C)c1nc(N)nc(NC2CCN(c3cccc(OC(F)(F)F)c3)C2)n1 (centres unmarked) [Example E24]
herbicidal activity pre-emergence [1]: very good herbicidal activity
herbicidal activity post-emergence [2]: very good herbicidal activity

Cc1cc(C)cc(N2CCC(Nc3nc(N)nc(C(C)(C)F)n3)C2)c1 (centres unmarked) [Example E25]
herbicidal activity pre-emergence [1]: very good herbicidal activity
herbicidal activity post-emergence [2]: very good herbicidal activity

Cc1cc(C)cc(N2CCC(Nc3nc(N)nc(C(C)F)n3)C2)c1 (centres unmarked) [Example E26]
herbicidal activity pre-emergence [1]: very good herbicidal activity
herbicidal activity post-emergence [2]: very good herbicidal activity

Cc1cc(C)cc(N2CCC(Nc3nc(N)nc(C(C)C)n3)C2)c1 (centres unmarked) [Example E27]
herbicidal activity pre-emergence [1]: very good herbicidal activity
herbicidal activity post-emergence [2]: very good herbicidal activity

CN(c1nc(N)nc(C(C)(C)F)n1)C1CCN(c2cccc(C(F)(F)F)c2)C1 (centres unmarked) [Example E48]
herbicidal activity pre-emergence [1]: very good herbicidal activity
herbicidal activity post-emergence [2]: very good herbicidal activity

CN(c1nc(N)nc(C(C)(C)F)n1)C1CCN(c2cccc(OC(F)(F)F)c2)C1 (centres unmarked) [Example E49]
herbicidal activity pre-emergence [1]: very good herbicidal activity
herbicidal activity post-emergence [2]: very good herbicidal activity

Cc1cc(C)cc(N2CCC(N(C)c3nc(N)nc(C(C)(C)F)n3)C2)c1 (centres unmarked) [Example E50]
herbicidal activity pre-emergence [1]: very good herbicidal activity
herbicidal activity post-emergence [2]: very good herbicidal activity

CN(c1nc(N)nc(C(C)(C)F)n1)C1CCN(c2cccc(Cl)c2)C1 (centres unmarked) [Example E55]
herbicidal activity pre-emergence [1]: very good herbicidal activity
herbicidal activity post-emergence [2]: very good herbicidal activity

CC(F)c1nc(N)nc(N(C)C2CCN(c3cccc(C(F)(F)F)c3)C2)n1 (centres unmarked) [Example E57]
herbicidal activity pre-emergence [1]: very good herbicidal activity
herbicidal activity post-emergence [2]: very good herbicidal activity

CC(F)c1nc(N)nc(N(C)C2CCN(c3cccc(OC(F)(F)F)c3)C2)n1 (centres unmarked) [Example E58]
herbicidal activity pre-emergence [1]: very good herbicidal activity
herbicidal activity post-emergence [2]: very good herbicidal activity

Cc1cc(C)cc(N2CCC(N(C)c3nc(N)nc(C(C)F)n3)C2)c1 (centres unmarked) [Example E59]
herbicidal activity pre-emergence [1]: very good herbicidal activity
herbicidal activity post-emergence [2]: very good herbicidal activity

CC(F)c1nc(N)nc(N(C)C2CCN(c3cccc(Cl)c3)C2)n1 (centres unmarked) [Example E64]
herbicidal activity pre-emergence [1]: very good herbicidal activity
herbicidal activity post-emergence [2]: very good herbicidal activity

CC(C)c1nc(N)nc(N(C)C2CCN(c3cccc(C(F)(F)F)c3)C2)n1 (centres unmarked) [Example E66]
herbicidal activity pre-emergence [1]: very good herbicidal activity
herbicidal activity post-emergence [2]: very good herbicidal activity

CC(C)c1nc(N)nc(N(C)C2CCN(c3cccc(OC(F)(F)F)c3)C2)n1 (centres unmarked) [Example E67]
herbicidal activity pre-emergence [1]: very good herbicidal activity
herbicidal activity post-emergence [2]: very good herbicidal activity

Cc1cc(C)cc(N2CCC(N(C)c3nc(N)nc(C(C)C)n3)C2)c1 (centres unmarked) [Example E68]
herbicidal activity pre-emergence [1]: very good herbicidal activity
herbicidal activity post-emergence [2]: very good herbicidal activity

CC(C)c1nc(N)nc(N(C)C2CCN(c3cccc(Cl)c3)C2)n1 (centres unmarked) [Example E73]
herbicidal activity pre-emergence [1]: very good herbicidal activity
herbicidal activity post-emergence [2]: very good herbicidal activity

CC(F)c1nc(N)nc(OC2CCN(C(C)(C)c3cccc(Cl)c3)C2=O)n1 (centres unmarked) [Example F1]
herbicidal activity pre-emergence [1]: very good herbicidal activity
herbicidal activity post-emergence [2]: very good herbicidal activity

CC(C)c1nc(N)nc(OC2CCN(C(C)(C)c3cccc(Cl)c3)C2=O)n1 (centres unmarked) [Example F2]
herbicidal activity pre-emergence [1]: very good herbicidal activity
herbicidal activity post-emergence [2]: very good herbicidal activity

CC(C)(F)c1nc(N)nc(OC2CCN(C(C)(C)c3cccc(Cl)c3)C2=O)n1 (centres unmarked) [Example F3]
herbicidal activity pre-emergence [1]: very good herbicidal activity
herbicidal activity post-emergence [2]: very good herbicidal activity
